Measurements as given in patent US8158589B2, “Peptides with the capacity to bind to transforming growth factor β1 (TGF-β1)” (Proyecto Biomedicine Cima, S.L., priority 2003, dated 2012).
Ends that are not written are not given here.

Legend:
TGF-β1 [1] = molecular target: T1, TGF-β1 (Mus musculus, UniProt P04202); test: Bleomycin-induced pulmonary fibrosis, therapeutic treatment started ten days after bleomycin; format: in vivo, mice
T1 construct: from tissue; host or cells: liver of Balb/C mice (CCl4 model); lung of C57BL/6 mice (bleomycin model)
Description: Female C57BL/6 mice (6-8 weeks of age) were obtained from Harlan SL (Barcelona, Spain) and maintained in accordance with the ethical committee of Universidad de Navarra (Spain) for the experimental use of animals. Lung injury was induced with 0.08 units/mouse of bleomycin sulfate (Sigma, Spain) diluted in 200 μl of phosphate buffered saline (PBS). Briefly, the suspension of bleomycin was instilled by pippeting into the nose of mice previously anesthetized with 2% isoflurane vapor. PBS was instilled in mice as a negative control for pulmonary fibrosis (PF), following the same procedures. Peptide treatment was started two days after bleomycin challenge and it was administered intraperitoneally in 500 μl of PBS on alternate days. Mice received high (75 μg/mouse) or low (25 μg/mouse) doses of P17, or the high dose (75 μg/mouse) of control peptide P301. Lungs were obtained 15 or 26 days after bleomycin administration to evaluate profibrogenic gene expression or histological damage, respectively. To study the therapeutic effect of P17 in the development of fibrosis, it was administered daily ten days after bleomycin challenge, once fibrosis was established. […]
Lungs were fixed by inflation with 4% paraformaldehyde overnight and dehydrated in 70% ethanol. […] Percentage of fibrosis in the lung was evaluated by light microscopy by three different qualified persons using a blinded system.

TGF-β1 [2] = molecular target: T2, TGF-β1 (Homo sapiens, UniProt P01137); test: Western Blot of p-Smad2, Smad2/3 and Smad7 in primary culture of rabbit corneal fibroblasts; format: cell-based; design: host or cells: added to a primary culture of rabbit corneal fibroblasts; conditions: primary culture, TGF-β1 and peptide
Description: Therefore, Western Blot and immunofluorescence studies were conducted to determine, from cells extracted from the in vivo studies, the signaling pathway used by the peptides administered topically. It should be emphasized that said studies were conducted on fibroblasts from rabbit cornea and not from rat cornea. This decision was made due to the difficulty entailed in isolating fibroblasts from rodent eyes.
Since the scientific literature repeatedly describes the TGF-β1 signaling pathways, the decision was made to go into depth in such pathways by means of the techniques described in the methodology section. Said pathways involve the study of the Smad protein family, specifically the study of the isoforms Smad2, 2/3 and 7.
To that end, protein extracts obtained from the primary culture of rabbit fibroblasts were treated with TGF-β1 at concentrations of 0, 3 and 5 ng/ml and, 50 and 200 μg/ml of peptide p17 and p144.

TGF-β1 [3] = molecular target: T2, TGF-β1; format: cell-based; design: purchased Roche; host or cells: added to Mv-1-Lu (CCL-64) mink lung epithelial cells
Excerpt: The cell line Mv-1-Lu (CCL-64, […], Virginia, USA) derives from mink pulmonary epithelium, grows as a monolayer, and responds to the presence of TGF-β1 by decreasing its proliferation (FIG. 5). Thus, the peptide-mediated inhibition of this cytokine is able to restore cell growth and reflects the capacity of the different peptides to inhibit the biological activity of TGF-β1 in vitro. The peptides tested were obtained by peptide synthesis, in accordance to conventional procedures (Merrifield R B. J Am Chem Soc 1963; 85:2149-2154; Atherton E et al. J Chem Soc Perkin Trans 1981; 1:538-546).
The Mv-1-Lu cells are cultured to confluence in complete medium [RPMI-1640 supplemented with L-glutamine, sodium pyruvate, antibiotics and 10% fetal bovine serum (FBS)] at 37° C. and in 5% CO2 in 162 cm^2 bottles (Costar Corporation, CA, USA). Following trypsinization, the cells are cultured in 200 μl of complete medium in 96-well plates at an initial density of 5,000 cells/well at 37° C. and in 5% CO2 during 6 hours to ensure adhesion. Then, different concentrations of the peptides to be tested are added, starting from 200 μg/ml, and following 200 pg/ml of TGF-β1 (Roche) are added. After 12 hours of incubation 1 μCi of methyl-3H-thymidine (Amersham Life Science, Buckinghamshire, United Kingdom) is added per well in 25 μl of clean medium (RPMI-1640). The plate is incubated for 12 more hours under the same conditions. Finally, the cells are harvested (Filtermate 196 Harvester, Packard), transferring the tritiated thymidine, incorporated in the course of DNA synthesis, to plates (UniFilter-96 GF/C®, Perkin Elmer). Following the addition of scintillation fluid, the radioactivity was quantified using a scintillation counter (Top Count, Microplate Scintillation Counter, Packard). As positive and negative control, use was made of the incorporation of tritiated thymidine in the absence and presence of TGF-β1, respectively. The inhibition of TGF-β1 activity in this test was calculated based on the following formula: […]
The negative control represents the incorporation of tritiated thymidine in the presence of TGF-β1 but in the absence of peptide, whereas the positive control refers to the incorporation of tritiated thymidine in the absence of TGF-β1 and peptide. Thus, according to the capacity of the peptides to revert the cytokine repressor effect on Mv-1-Lu cell line proliferation, percentage of TGF-β1 biological activity inhibition by the peptides can be measured (Table 2).
Comparisons have been made of the activity of truncated peptides (derived from peptide sequence SEQ ID NO: 17) versus the complete sequence, in terms of the capacity to revert the suppressor effect of TGF-β1 upon proliferation of the Mv-1-Lu cell line. To this effect, and to determine the minimum sequence of peptide SEQ ID NO: 17 capable of inhibiting the biological activity of TGF-β1 in vitro, truncated versions of this peptide were synthesized, with truncation at the N-terminal end, C-terminal end or in both ends of the molecule. The peptides tested were obtained by peptide synthesis following conventional procedures (Merrifield R B. J Am Chem Soc 1963; 85:2149-2154; Atherton E et al. J Chem Soc Perkin Trans 1981; 1:538-546). Following the same methodology described in Example 2, the activity of truncated peptides versus the complete sequence of the peptide SEQ ID NO: 17 was quantified, in terms of a proliferation assay of the Mv-1-Lu cell line.

T2 sequence (P01137 279-390 limits assumed, species assumed): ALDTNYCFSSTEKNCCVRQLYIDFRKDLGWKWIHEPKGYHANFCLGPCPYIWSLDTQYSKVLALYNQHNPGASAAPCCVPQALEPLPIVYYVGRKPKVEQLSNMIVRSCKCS
T1 sequence (P04202 279-390 limits assumed): as the sequence (P01137 279-390 limits assumed, species assumed) above, with A75S counted along it

KRIWFIPRSSWYERA [SEQ ID NO: 17, KRIWFIPRSSWYERA]
lung fibrosis (Masson's Trichrome), established fibrosis (TGF-β1 [1]; 25 μg/mouse daily from day 10, day 26): No beneficial effect
lung fibrosis (Masson's Trichrome), established fibrosis (TGF-β1 [1]; 75 μg/mouse daily from day 10, day 26, vs untreated mice): significant attenuation of fibrosis
expression of Smad 2/3 (TGF-β1 [2]): not affected
expression of Smad 7 (TGF-β1 [2]): not modified
% Inhibition of in vitro TGF-β1 biological activity (TGF-β1 [3]): 28.5%
